The values below come from patent publication US7169927B2, “Indole-amide derivatives and their use as glycogen phosphorylase inhibitors” (AstraZeneca AB, priority 2002, dated 2007).

Assay [1] concerns conscious dogs. The following applies: following a glucagon challenge; cited from earlier work.
The subject of assay [2] is hepatocytes. The following applies: cited from earlier work; for glucose output: glucagon stimulated.
Assay [3] has as its system db/db and ob/ob mice. The following applies: cited from earlier work.
The target in assay [4] is T1, Human recombinant liver glycogen phosphorylase a (hrl GPa) (Homo sapiens, UniProt P06737).
T1 sequence (P06737 1-847): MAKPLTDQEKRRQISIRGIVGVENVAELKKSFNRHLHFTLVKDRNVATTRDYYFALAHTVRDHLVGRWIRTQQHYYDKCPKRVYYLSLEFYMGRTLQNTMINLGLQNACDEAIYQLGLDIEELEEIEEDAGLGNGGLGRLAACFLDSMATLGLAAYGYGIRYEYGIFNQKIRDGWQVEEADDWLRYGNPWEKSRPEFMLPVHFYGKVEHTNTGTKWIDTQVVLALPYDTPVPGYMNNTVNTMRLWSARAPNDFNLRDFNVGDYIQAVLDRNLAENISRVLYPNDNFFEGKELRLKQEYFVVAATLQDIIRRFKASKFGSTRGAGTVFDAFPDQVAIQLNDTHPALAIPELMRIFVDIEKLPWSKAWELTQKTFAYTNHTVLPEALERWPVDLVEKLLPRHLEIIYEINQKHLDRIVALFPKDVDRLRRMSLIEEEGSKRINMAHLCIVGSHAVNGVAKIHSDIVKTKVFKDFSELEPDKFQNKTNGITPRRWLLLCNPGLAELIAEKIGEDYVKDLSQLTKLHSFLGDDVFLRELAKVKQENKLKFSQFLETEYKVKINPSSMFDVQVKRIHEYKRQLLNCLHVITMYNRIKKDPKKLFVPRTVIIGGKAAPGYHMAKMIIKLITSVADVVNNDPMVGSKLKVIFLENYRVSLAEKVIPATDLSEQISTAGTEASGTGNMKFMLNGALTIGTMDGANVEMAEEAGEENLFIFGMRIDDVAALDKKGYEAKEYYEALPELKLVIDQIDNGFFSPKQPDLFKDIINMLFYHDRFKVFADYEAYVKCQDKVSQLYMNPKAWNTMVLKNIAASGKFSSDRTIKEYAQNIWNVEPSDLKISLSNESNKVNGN
As to the kind of experiment: Glycogen phosphorylase a inhibition, glycogen degradation (multienzyme coupled assay, NADH fluorescence). The following applies: glycogen degradation direction. In kind it is biochemical. The procedure: The activity of the compounds is alternatively determined by measuring the inhibitory effect of the compounds on glycogen degradation, the production of glucose-1-phosphate from glycogen is monitored by the multienzyme coupled assay, as described in EP 0 846 464 A2, general method of Pesce et al (Pesce, M A, Bodourian, S H, Harris, R C, and Nicholson, J F (1977) Clinical Chemistry 23, […]). The reactions were in 384well microplate format in a volume of 50 μl. The change in fluorescence due to the conversion of the co-factor NAD to NADH is measured at 340 nm excitation, 465 nm emission in a Tecan Ultra Multifunctional Microplate Reader. The reaction is in 50 mM HEPES, 3.5 mM KH2PO4, 2.5 mM MgCl2, 2.5 mM ethylene glycol-bis(b-aminoethyl ether) N,N,N′N′tetraacetic acid, 100 mM KCl, 8 mM D-(+)-glucose pH7.2, containing 0.5 mM dithiothreitol, the assay buffer solution. Human recombinant liver glycogen phosphorylase a (hrl GPa) 20 nM is pre-incubated in assay buffer solution with 6.25 mM NAD, 1.25 mg type III glycogen at 1.25 mg ml^−1 the reagent buffer, for 30 minutes. […] The non-inhibited activity of GPa is measured in the presence of 10 μl 5% DMSO in assay buffer solution and maximum inhibition measured in the presence of 5 mgs ml^−1 N-ethylmaleimide. […] Relative Fluoresence Units (RFUs) are measured at 340 nm excitation, 465 nm emission. […]

Turning to `CCN1C(C)=C(C(=O)OC(C)C)C(c2ccccc2Cl)C2=C1COC2=O` (stereo not drawn) [Bay R 3401], in assay [1], the arterial plasma glucose result is on record as “reduced significantly” and the hepatic glucose output entry was “reduced significantly”.
`CN(C)C(=O)[C@H](O)[C@H](Cc1ccccc1)NC(=O)c1cc2cc(Cl)ccc2[nH]1` [CP91149]: in assay [2], the glucagon stimulated glycogenolysis result is “reduce” and the glucose output entry is reported as “reduce”. Further, the plasma glucose concentration result in assay [3] was “reduced, in a dose related manner”.
Turning to `O=C(N[C@@H](Cc1ccc(F)cc1)C(=O)N1CCC(O)CC1)c1cc2cc(Cl)ccc2[nH]1` [CP320626], in assay [2], the glucagon stimulated glycogenolysis result is reported as “reduce” and the glucose output entry is listed as “reduce”. For the same compound, the plasma glucose concentration result in assay [3] is recorded as “reduced, in a dose related manner”.
Regarding `Cc1csc(NC(=O)CN2C(=O)C(NC(=O)c3cc4cc(Cl)ccc4[nH]3)Cc3ccccc32)n1` (stereo not drawn) [Example 14, 5-chloro-N-(1-{2-[(4-methyl-1,3-thiazol-2-yl)amino]-2-oxoethyl}-2-oxo-1,2,3,4-tetrahydroquinolin-3-yl)-1H-indole-2-carboxamide], the IC50 in assay [4] came out at 4.6 µM.

As a reminder, the IC50 is the point on the concentration scale where inhibition reaches its midpoint.
